# Experimental data: article PMC7018803, “A randomized, placebo-controlled, phase 1 study to evaluate the effects of TAK-063 on ketamine-induced changes in fMRI BOLD signal in healthy subjects” (Psychopharmacology, 2019)
# Experiments:
# [1] = test system: patients with schizophrenia; details: cited from earlier work
# [2] = test system: individuals with schizophrenia; design: method as in Macek et al. [2017]; details: 20 mg; 6-week phase 2 study; ref Macek et al. [2017]; cited from earlier work
# healthy male subjects = test: Ketamine-induced changes in fMRI BOLD signal during resting state; type: in vivo, human
# Description: Subjects checked in on day − 1 of each treatment period during which vital signs, electrocardiogram (ECG), and laboratory safety tests were repeated. On day 1 of each treatment period, subjects received a 3-, 10-, or 30-mg TAK-063 dose or placebo tablets. Participants then relaxed, slept, or watched movies while remaining in the research environment. Ketamine (0.12 mg/kg intravenous bolus over 60 s followed by a continuous infusion of 0.31 mg/kg/h over approximately 150 min) was administered 4 h after TAK-063 or placebo (Fig. 1). This ketamine dose was based on a previous study that achieved steady-state concentrations of 75 ng/mL and provided a robust BOLD signal with minimal psychotomimetic symptoms (De Simoni et al. [2013]).
# The scanning protocol for the current study was very comprehensive and included multiple MR approaches. This publication reports the BOLD fMRI data for the working memory task, but also resting state fMRI. The magnetic scanning portion of the neuroimaging test battery was initiated 20 min before ketamine dosing. Imaging was performed using a 3 Tesla Siemens Trio scanner. The MR scanning protocol was initiated 20 min before ketamine dosing; prior to scanning, a structural magnetization prepared rapid gradient echo (MPRAGE) scan was collected. As part of the scanning protocol, each subject received 20 min of scanning − 10 min arterial spin labeling (ASL) plus 10 min resting BOLD prior to ketamine infusion. After ketamine infusion, the resting state fMRI BOLD acquisition continued for an additional 10 min. Next, a Spatial Working Memory task-induced fMRI BOLD acquisition was performed for 15 min. Following these BOLD acquisitions, another 10 min ASL scan was acquired and a 10-min T1 relaxometry scan was conducted. The MR scanning sequence ended with a 5-min MPRAGE acquisition.
# Fifty sequential gradient-echo echoplanar images (EPIs) sensitive to blood oxygenation level-dependent (BOLD) signal were collected in contiguous slices of 6-mm thickness, with 3000-ms repetition time, 40-ms echo time, 20 × 20-cm field of view, a 64 × 64 image matrix, 70° flip angle, and an in-plane resolution of 3 × 3 mm. A working memory challenge based on the expectancy A-X Continuous Performance Test (AX-CPT) paradigm was presented. The AX-CPT task was implemented in Eprime and presents 144 trials in four blocks of 36 trials. Before scanning, participants practiced the task (Barch et al. [2001]; MacDonald et al. [2003]).
# We conducted a number of pre-processing steps to standardize examination of data after acquisition. These steps included (a) using the anatomical image (T1 weighted MPRAGE acquired for each subject at the beginning of the imaging session) to determine the parameters for spatial normalization to the EPI template image supplied with statistical parametric mapping (SPM) using a 12-parameter transformation; (b) registering functional images to correct for subject movement during the experimental paradigm; (c) normalizing functional images to transform images from analyzed subjects into the same standard space; (d) smoothing images (8-mm full width at half maximum [FWHM]) to minimize normalization artifacts and improve signal to noise ratio; (e) applying a high pass filter of 1200 s to the data following spatial smoothing to minimize the influence of very low frequency noise present in fMRI BOLD data without distorting the ketamine response profile. […]
smiles,measurement,setting,value
COc1cn(-c2ccc(-n3cccn3)cc2F)nc(-c2ccnn2-c2ccccc2)c1=O [TAK-063],safety and tolerability in clinical studies,"[1]; ref Goldsmith et al. [2017], Tsai et al. [2016]",safe and well tolerated
same,effects in patients with schizophrenia,"[1]; ref Macek et al. [2016a], [b]","increases in electroencephalogram (EEG) gamma power, improvements in mismatch negativity, and some improvements in cognition"
same,change from baseline in PANSS score at week 6 vs placebo (primary endpoint),[2],did not meet its primary endpoint
same,effect sizes at the 10-mg dose,"healthy male subjects; 10 mg, ketamine-induced BOLD changes, resting state",generally smaller relative to the effects of other dose groups
same,effect on ketamine-induced changes in resting state fMRI BOLD signals,"healthy male subjects; many key regions examined, 3-30 mg",meaningful effect attenuating ketamine-induced changes
